The text below walks through data of patent publication US20100035943A1, “Oxa-and thiadiazoles and their use as metalloproteinase inhibitors” (VERNALIS (OXFORD) LTD, priority 2002, published 2010).

Assay type in all cases: biochemical
In one experiment the target is 92 kDa gelatinase (MMP9) (Homo sapiens, UniProt P14780). Put plainly: MMP9 enzyme inhibition assay (fluorogenic peptide substrate McaPLGLDpaAR). The conditions noted are these: recombinant human 92 kDa gelatinase, 37° C., 2 hours. The method, then:
Compounds were tested for inhibitory activity against 92 kDa gelatinase (MMP9) in an assay using a coumarin-labelled peptide substrate, (7-methoxycoumarin-4-yl)acetyl-Pro-Leu-Gly-Leu-(3-[2,4-dinitrophenyl]-L-2,3-diaminopropionyl)-Ala-Arg-NH2 (McaPLGLDpaAR) (Knight et al, FEBS Lett. 1992; 263-266).
(§1) Stock solutions were made up as follows: • Assay Buffer: 100 mM Tris-HCl pH 7.6 containing 100 mM NaCl, 10 mM CaCl2, and 0.05% Brij 35 • Substrate: 0.4 mM McaPLGLDpaAR (from Bachem) (0.437 mg/ml) stock solution in 100% DMSO (stored at −20° C.). Dilute to 8 μM in assay buffer. • Enzyme: Recombinant human 92 kDa gelatinase (MMP-9; APMA (4-aminophenyl • mercuric acetate)—activated if necessary) appropriately diluted in assay buffer.
(§2) Test Compounds were prepared initially as 10 mM compound solution in 100% DMSO, diluted to 1 mM in 100% DMSO, then serially diluted 3-fold in 100% DMSO across columns 1-10 of a 96-well microtitre plate Assay concentration range, 100 μM (column 1) to 5.1 nM (column 10)
(§3) The assay was performed in a total volume of 100 μl per well in 96-well microtitre plates. Activated enzyme (20 μl) was added to the wells followed by 20 μl of assay buffer. Appropriate concentrations of test compounds dissolved in 10 μl of DMSO were then added followed by 50 μl of McaPLGLDpaAR (8 μM, prepared by dilution of DMSO stock in assay buffer). For each assay ten concentrations of test compound were examined in duplicate. Control wells lack either enzyme or test compound. The reactions were incubated at 37° C. for 2 hours. The fluorescence at 405 nm was measured immediately with an SLT Fluostar fluorometer (SLT Labinstruments GmbH, Grödig, Austria) using 320 nm excitation, without stopping the reaction.
(§4) The effect of the test compound was determined from the dose response curve generated by the 10 duplicate concentrations of inhibitor. The IC50 (the concentration of compound required to give a 50% decrease in enzyme activity) was obtained by fitting data to the equation, Y=a+((b−a)/(1+(c/X)^d)). (Y=inhibition achieved for a particular dose; X=the dose in nM; a=minimum y or zero % inhibition; b=maximum y or 100% inhibition; c=is the IC50; d=is the slope). The result was rounded to one significant figure.

In another experiment the target is metalloelastase (MMP12) (Homo sapiens, UniProt P39900). Put plainly: MMP12 enzyme inhibition assay (fluorogenic peptide substrate McaPLGLDpaAR). The conditions noted are these: protocol as for MMP9 assay. The method, then: as §1, §2, §3, §4
Chain of metalloelastase (MMP12) (P39900 106-470): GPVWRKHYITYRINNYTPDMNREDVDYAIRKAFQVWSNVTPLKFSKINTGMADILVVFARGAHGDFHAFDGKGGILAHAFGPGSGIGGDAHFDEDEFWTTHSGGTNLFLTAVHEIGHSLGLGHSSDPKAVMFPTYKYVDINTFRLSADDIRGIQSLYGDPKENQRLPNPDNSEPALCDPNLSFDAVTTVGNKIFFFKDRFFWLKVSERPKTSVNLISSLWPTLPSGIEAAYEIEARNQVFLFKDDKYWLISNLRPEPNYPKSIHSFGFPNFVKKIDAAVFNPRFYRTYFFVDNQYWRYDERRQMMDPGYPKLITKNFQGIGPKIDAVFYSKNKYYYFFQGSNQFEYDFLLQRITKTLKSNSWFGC
Compounds were tested for inhibitory activity against metalloelastase (MMP12) in an assay using a coumarin-labelled peptide substrate, (7-methoxycoumarin-4-yl)acetyl-Pro-Leu-Gly-Leu-(3-[2,4-dinitrophenyl]-L-2,3-diaminopropionyl)-Ala-Arg-NH2 (McaPLGLDpaAR) (Knight et al, FEBS Lett. 1992; 263-266). The protocol for this assay was as described for the MMP9 assay above.

Another experiment deals with T1, collagenase (MMP1) (Homo sapiens, UniProt P03956).
T1 sequence (P03956 100-469): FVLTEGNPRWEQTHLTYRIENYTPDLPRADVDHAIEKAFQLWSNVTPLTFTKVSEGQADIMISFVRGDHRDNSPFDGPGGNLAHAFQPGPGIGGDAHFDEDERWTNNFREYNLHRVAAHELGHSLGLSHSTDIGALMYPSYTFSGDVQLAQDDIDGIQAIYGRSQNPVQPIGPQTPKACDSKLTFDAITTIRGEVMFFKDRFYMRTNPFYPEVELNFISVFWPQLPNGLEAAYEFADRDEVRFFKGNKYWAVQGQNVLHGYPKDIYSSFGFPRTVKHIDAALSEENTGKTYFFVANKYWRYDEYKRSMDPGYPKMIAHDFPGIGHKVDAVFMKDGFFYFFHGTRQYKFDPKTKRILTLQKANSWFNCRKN
Description: MMP1 enzyme inhibition assay (fluorogenic peptide substrate McaPLGLDpaAR). Conditions: protocol as for MMP9 assay. As for the experimental part:
as §1, §2, §3, §4
• Compounds were tested for inhibitory activity against collagenase (MMP1) in an assay using a coumarin-labelled peptide substrate, (7-methoxycoumarin-4-yl)acetyl-Pro-Leu-Gly-Leu-(3-[2,4-dinitrophenyl]-L-2,3-diaminopropionyl)-Ala-Arg-NH2 (McaPLGLDpaAR) (Knight et al, FEBS Lett. 1992; 263-266). The protocol for this assay was as described for the MMP9 assay above.

The structures appear in SMILES notation. Bounds are passed on as bounds.

Chain of 92 kDa gelatinase (MMP9) (P14780 107-707 limits assumed): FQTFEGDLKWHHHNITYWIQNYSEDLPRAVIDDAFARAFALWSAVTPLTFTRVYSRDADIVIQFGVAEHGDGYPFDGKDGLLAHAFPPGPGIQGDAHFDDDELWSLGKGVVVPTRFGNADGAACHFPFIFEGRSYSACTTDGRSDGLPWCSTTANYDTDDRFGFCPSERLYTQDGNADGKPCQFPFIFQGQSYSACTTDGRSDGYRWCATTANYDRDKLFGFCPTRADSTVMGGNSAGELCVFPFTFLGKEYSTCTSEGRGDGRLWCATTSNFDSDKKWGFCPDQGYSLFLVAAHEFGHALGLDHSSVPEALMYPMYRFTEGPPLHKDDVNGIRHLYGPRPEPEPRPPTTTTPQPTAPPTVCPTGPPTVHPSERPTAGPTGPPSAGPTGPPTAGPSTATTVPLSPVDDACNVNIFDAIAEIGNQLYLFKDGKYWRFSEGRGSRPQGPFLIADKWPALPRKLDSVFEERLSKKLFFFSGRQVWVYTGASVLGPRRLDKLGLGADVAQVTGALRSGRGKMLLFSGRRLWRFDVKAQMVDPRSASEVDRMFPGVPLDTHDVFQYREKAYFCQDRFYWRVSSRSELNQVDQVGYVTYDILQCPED

As to `CC(C)C[C@@H](C(=O)N[C@H](c1noc(-c2cccs2)n1)C(C)(C)C)[C@H](O)C(=O)O` [Example 29, 3R-[2,2-Dimethyl-1S-(5-thiophen-2-yl-[1,2,4]oxadiazol-3-yl)-propylcarbamoyl]-2S-hydroxy-5-methyl-hexanoic Acid], the IC50 at 92 kDa gelatinase (MMP9) lay in the range of 1 to 10 µM; on metalloelastase (MMP12), 0.1 to 1 µM; against collagenase (MMP1), 1 to 10 µM.
`CC(C)Cc1nc([C@@H](NC(=O)[C@H](CC(C)C)[C@H](O)C(=O)NO)C(C)(C)C)no1` [Example 11, 2S-Hydroxy-3R-[1S-(5-isobutyl-[1,2,4]oxadiazol-3-yl)-2,2-dimethyl-propylcarbamoyl]-5-methyl Hexanohydroxamic Acid]: the IC50 on 92 kDa gelatinase (MMP9) is 1 to 10 µM; against metalloelastase (MMP12), less than 0.1 µM; against collagenase (MMP1), 1 to 10 µM.
On to `CC(C)(C)[C@H](NC(=O)[C@H](C/C=C/c1ccccc1)[C@H](O)C(=O)NO)c1nc(-c2ccccc2)no1` [Example 31, N4-[2,2-Dimethyl-1S-(3-phenyl-[1,2,4]oxadiazol-5-yl)-propyl]-2S,N1-dihydroxy-3R-(3-phenyl-allyl)-succinamide], for which the IC50 at 92 kDa gelatinase (MMP9) is more than 10 µM; at metalloelastase (MMP12) it was 0.1 to 1 µM; against collagenase (MMP1), more than 10 µM.
Turning to `CC(C)C[C@@H](C(=O)N[C@H](c1noc(Cc2cccs2)n1)C(C)(C)C)[C@H](O)C(=O)NO` [Example 7, 2S-Hydroxy-3R-[1S-(5-thiopen-2-ylmethyl-[1,2,4]oxadiazol-3-yl)-2,2-dimethyl-propylcarbamoyl]-5-methyl Hexanohydroxamic Acid], the IC50 on 92 kDa gelatinase (MMP9) is 1 to 10 µM; against metalloelastase (MMP12), 0.1 to 1 µM; on collagenase (MMP1) it was 1 to 10 µM.
For the compound `C=CC[C@H](C(=O)NO)[C@@H](CC(C)C)C(=O)N[C@H](c1nc(C)no1)C(C)(C)C` [Example 23, 2S-Allyl-3R-[2,2-dimethyl-I S-(3-methyl-[1,2,4]oxadiazol-5-yl)-propylcarbamoyl]-5-methyl-hexanohydroxamic Acid], the IC50 on 92 kDa gelatinase (MMP9) is less than 0.1 µM; at metalloelastase (MMP12) it was less than 0.1 µM; against collagenase (MMP1), 0.1 to 1 µM.
Turning to `CC(C)C[C@H](CC(=O)NO)C(=O)N[C@H](c1nc(-c2ccccc2)no1)C(C)(C)C` [Example 24, 3R-[2,2-Dimethyl-1S-(3-phenyl-[1,2,4]oxadiazol-5-yl)-propylcarbamoyl]-5-methyl-hexanohydroxamic Acid], the concentration for half-maximal inhibition (IC50) was 1 to 10 µM on 92 kDa gelatinase (MMP9), less than 0.1 µM on metalloelastase (MMP12) and 1 to 10 µM against collagenase (MMP1).
Consider `CC(C)C[C@@H](C(=O)N[C@H](c1noc(C2CCCC2)n1)C(C)(C)C)[C@H](O)C(=O)NO` [Example 9, 2S-Hydroxy-3R-[1S-(5-cyclopentyl-[1,2,4]oxadiazol-3-yl)-2,2-dimethyl-propylcarbamoyl]-5-methyl Hexanohydroxamic Acid], for which the IC50 was 1 to 10 µM at 92 kDa gelatinase (MMP9), less than 0.1 µM on metalloelastase (MMP12) and 0.1 to 1 µM at collagenase (MMP1).
In the case of `CCOc1ccc(CCC[C@@H](C(=O)N[C@H](c2noc(-c3cccs3)n2)C(C)(C)C)[C@H](O)C(=O)NO)cc1` [Example 3], the results for the IC50 on 92 kDa gelatinase (MMP9), against metalloelastase (MMP12) and on collagenase (MMP1) were less than 0.1 µM, less than 0.1 µM and more than 10 µM, respectively.
With `CC(C)C[C@@H](C(=O)N[C@H](c1noc(-c2ccccc2)n1)C(C)(C)C)[C@H](O)C(=O)NO` [Example 1, 3R-[2,2-Dimethyl-1 S-(5-phenyl-[1,2,4]oxadiazol-3-yl)-propylcarbamoyl]-2S-hydroxy-5-methyl-Hexanohydroxamic Acid], the IC50 on 92 kDa gelatinase (MMP9) is 0.1 to 1 µM; at metalloelastase (MMP12), less than 0.1 µM; against collagenase (MMP1) it was 0.1 to 1 µM.
Take `CC(C)C[C@@H](C(=O)N[C@H](c1noc(C(C)(C)C)n1)C(C)(C)C)[C@H](O)C(=O)NO` [Example 12, 2S-Hydroxy-3R-[1S-(5-tert-butyl-[1,2,4]oxadiazol-3-yl)-2,2-dimethyl-propylcarbamoyl]-5-methyl Hexanohydroxamic Acid]: the results for the IC50 at 92 kDa gelatinase (MMP9), at metalloelastase (MMP12) and against collagenase (MMP1) were 0.1 to 1 µM, less than 0.1 µM and 0.1 to 1 µM, respectively.
Turning to `CC(C)C[C@@H](C(=O)N[C@H](c1noc(C(C)C)n1)C(C)(C)C)[C@H](O)C(=O)NO` [Example 4, 2S-Hydroxy-3R-[1S-(5-isopropyl-[1,2,4]oxadiazol-3-yl)-2,2-dimethyl-propylcarbamoyl]-5-methyl Hexanohydroxamic Acid], the IC50 is 0.1 to 1 µM on 92 kDa gelatinase (MMP9), less than 0.1 µM against metalloelastase (MMP12) and 0.1 to 1 µM on collagenase (MMP1).
With `CC(C)(C)[C@H](NC(=O)[C@H](CCCc1cc(C(F)(F)F)cc(C(F)(F)F)c1)[C@H](O)C(=O)NO)c1noc(-c2cccs2)n1` [Example 33, 2R-[3-(3,5-Bis-trifluoromethyl-phenyl)-propyl]-N1-[2,2-dimethyl-1S-(5-thiophen-2-yl-[1,2,4]oxadiazol-3-yl)-propyl]-3S, N4-dihydroxy-succinamide], the values for the IC50 at 92 kDa gelatinase (MMP9), against metalloelastase (MMP12) and against collagenase (MMP1) were more than 10 µM, 0.1 to 1 µM and more than 10 µM, respectively.
On to `CCOc1ccc(CCC[C@@H](C(=O)N[C@H](c2noc(-c3ccco3)n2)C(C)(C)C)[C@H](O)C(=O)NO)cc1` [Example 35, 2R-[3-(4-Ethoxy-phenyl)-propyl]-N1-[1S-(5-furan-2-yl-[1,2,4]oxadiazol-3-yl)-2,2-dimethyl-propyl]-3S,N4-dihydroxy-succinamide], for which the IC50 at 92 kDa gelatinase (MMP9) was less than 0.1 µM; on metalloelastase (MMP12), less than 0.1 µM; against collagenase (MMP1) it was more than 10 µM.
Consider `CC(C)C[C@@H](C(=O)N[C@H](c1noc(C2CC2)n1)C(C)(C)C)[C@H](O)C(=O)NO` [Example 16, 2S-Hydroxy-3R-[1S-(5-cyclopropyl-[1,2,4]oxadiazol-3-yl)-2,2-dimethyl-propylcarbamoyl]-5-methyl Hexanohydroxamic Acid], for which the half-maximal inhibitory concentration (IC50) on 92 kDa gelatinase (MMP9) was 0.1 to 1 µM; at metalloelastase (MMP12), less than 0.1 µM; on collagenase (MMP1) it was 0.1 to 1 µM.
Consider `CC(C)C[C@@H](C(=O)N[C@H](c1noc(-c2ccco2)n1)C(C)(C)C)[C@H](O)C(=O)O` [Example 30, 3R-[1S-(5-Furan-2-yl-[1,2,4]oxadiazol-3-yl)-2,2-dimethyl-propylcarbamoyl]-2S-hydroxy-5-methyl-hexanoic Acid], for which the results for the 50% inhibitory concentration (IC50) on 92 kDa gelatinase (MMP9), on metalloelastase (MMP12) and on collagenase (MMP1) were more than 10 µM, 1 to 10 µM and more than 10 µM, respectively.
